Laboratory results taken from US20180289692A1, “TLR MODULATORS AND METHODS OF USE” (CELGENE CORPORATION, priority 2015, published 2018).
Oligonucleotides are written 5' to 3', each unit as a sugar letter and its base; * is a phosphorothioate linkage, no mark a phosphodiester; rarer units and linkages stand in square brackets, end groups in braces. Plain capitals give the bases only. d = 2'-deoxy (DNA)

Tests used:
human PBMCs = test: IL-1β secretion from NOD2 ligand L18-MDP stimulated human PBMCs; type: cell-based; details: L-18 MDP 100 ng/ml, FIG. 19
Description: PBMCs were isolated from 3 donors of buffy coat (Blood Center of NY) using density gradient centrifugation. The PBMCs were resuspended in RPMI-1640 media supplemented with 10% FBS, 2 mM L-glutamine and 100 units/ml Penicillin and 100 μg/ml Streptomycin. The cells were plated in 96-well flat bottom plates at 250,000 cells/well. […] After 1 hr, the cells were stimulated with and without L-18 MDP at 100 ng/ml (Invivogen, San Diego, Calif.) or 1 ng/ml LPS (Sigma, St. Louis, Mo.). The cells were then incubated for 24 hrs at 37° C., 5% CO2. All compounds or ODNs were resuspended in endotoxin-free water. After 24 hrs, the supernatant was collected and analyzed for cytokine production. The supernatants were analyzed in duplicate for cytokine production in a magnetic multi-plex bead format using the MagPix instrument (Millipore, Billerica, Mass.). IL-1β was tested using a bead-based human cytokine/chemokine kit (Millipore, Cat# HCYTOMAG-60K-09). The manufacturer's procedures were followed accordingly. Data analysis was performed using Milliplex Analyst Software (Millipore).

NOD2 = molecular target: T1, NOD2 (Homo sapiens, UniProt Q9HC29); details: HEK-Blue NOD2 cells; cited from earlier work
T1 construct: host or cells: HEK-Blue NOD2 cells
T1 sequence (Q9HC29 whole entry, species assumed): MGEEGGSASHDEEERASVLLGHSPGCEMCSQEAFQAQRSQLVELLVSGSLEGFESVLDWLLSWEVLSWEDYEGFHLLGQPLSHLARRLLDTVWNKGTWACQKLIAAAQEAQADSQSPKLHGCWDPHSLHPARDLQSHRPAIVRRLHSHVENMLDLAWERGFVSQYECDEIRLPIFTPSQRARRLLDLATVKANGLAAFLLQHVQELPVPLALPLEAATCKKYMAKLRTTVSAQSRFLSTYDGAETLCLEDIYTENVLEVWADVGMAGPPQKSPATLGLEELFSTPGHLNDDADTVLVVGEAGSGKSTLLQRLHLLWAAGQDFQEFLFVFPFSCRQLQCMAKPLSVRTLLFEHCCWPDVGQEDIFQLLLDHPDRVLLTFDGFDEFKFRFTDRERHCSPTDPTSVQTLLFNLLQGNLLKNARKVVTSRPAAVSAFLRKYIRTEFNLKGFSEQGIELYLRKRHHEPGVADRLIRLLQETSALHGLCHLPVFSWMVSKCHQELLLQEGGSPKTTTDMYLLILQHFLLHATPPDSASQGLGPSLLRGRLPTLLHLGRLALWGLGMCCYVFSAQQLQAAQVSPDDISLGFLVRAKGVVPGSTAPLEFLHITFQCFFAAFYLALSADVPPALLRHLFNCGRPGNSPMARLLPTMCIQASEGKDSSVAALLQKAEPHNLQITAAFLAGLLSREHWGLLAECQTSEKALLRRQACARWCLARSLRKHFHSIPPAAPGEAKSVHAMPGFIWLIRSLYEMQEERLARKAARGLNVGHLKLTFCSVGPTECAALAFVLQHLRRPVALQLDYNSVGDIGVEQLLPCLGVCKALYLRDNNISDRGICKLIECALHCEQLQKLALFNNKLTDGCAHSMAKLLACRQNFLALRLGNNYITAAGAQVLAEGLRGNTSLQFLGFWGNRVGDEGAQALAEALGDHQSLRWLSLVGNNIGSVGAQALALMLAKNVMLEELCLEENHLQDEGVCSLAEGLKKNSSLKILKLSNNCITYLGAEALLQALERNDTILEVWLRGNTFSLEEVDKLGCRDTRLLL

[1] = system: CD19+ B-cells in human PBMCs; test: B-cell activation in human PBMCs, CD86 expression on CD19+ B-cells by FACS; type: cell-based; details: 24 h, FIG. 7
Description: PBMC were incubated on ice in the presence of Fc-Block (BD Pharmingen) for 20 minutes, washed, and incubated with antibodies specific for surface molecules or isotype-matched control mAbs. APC-Cy7 labeled anti-human CD19 mAb and PE-labeled anti-human CD86 mAb were purchased from BioLegend. The stained cells were then subjected to FACS (FACSCanto, BD Biosciences) using the FACSDiva software. FACS analysis was performed using FlowJo software. Single, viable cells in the CD19+ B-cells gates were used for analysis. The flow cytometric results are expressed as the percentage of CD86-expressing cells (FIG. 7A) as the mean fluorescence intensity (MFI) of CD86-expressing cells in each gate (FIG. 7B).

Row | Compound | stimulation of IL-1β secretion from human PBMCs (human PBMCs) | more efficient NF-κB activator than MDP (NOD2) | B-cell activation (CD86 upregulation) [1]
1 | CCCCCCCCCCCCCCCCCC(=O)OCC1OC(O)C(NC(C)=O)C(OC(C)C(=O)NC(C)C(=O)NC(CCC(=O)O)C(N)=O)C1O [L-18 MDP] | about 51 fold | 10 fold | 
2 | ODN2137: 5′-TGCTGCTTTTGTGCTTTTGTGCTT-3′, fully PS, GC-containing (DNA dT*dG*dC*dT*dG*dC*dT*dT*dT*dT*dG*dT*dG*dC*dT*dT*dT*dT*dG*dT*dG*dC*dT*dT) |  |  | Stronger
